Results: patent publication US9125913B2, “Bcl-2-selective apoptosis-inducing agents for the treatment of cancer and immune diseases” (AbbVie Inc., priority 2008, dated 2015)

Experiments:
FL5.12/Bcl-2 cells = assay: FL5.12/Bcl-2 cell viability assay; type: cell-based, murine; settings: ratio of canine platelet EC50 to FL5.12/Bcl-2 EC50
From the text: FL5.12 is an IL-3 dependent prolymphocytic murine cell line that undergoes apoptosis upon IL-3 withdrawal as a result of the upregulation of pro-apoptotic Bcl-2 proteins such as Bim and Puma. Stable overexpression of anti-apoptotic Bcl-2 protein (FL5.12/Bcl-2) protects against apoptosis induced by IL-3 withdrawal by sequestration of Bim and Puma. […] The ability of compounds to kill FL5.12/Bcl-2 cells upon IL-3 withdrawal is a direct measure of the compounds' ability to inhibit anti-apoptotic Bcl-2 protein function.
Wild type FL5.12/Bcl-2 overexpressing stable transfectants were cultured in RPMI-1640 supplemented with 2 mM L-glutamine, 10% FBS, 1 mM sodium pyruvate, 2 mM HEPES, 1% penicillin/streptomycin (Invitrogen), 57 μM β-ME, and 10% WEHI-3B conditioned medium (source of IL-3) and maintained at 37° C. containing 5% CO2. 1×10^6 cells/ml were washed 1×PBS and resuspended in medium not supplemented with 10% WEHI-3B for 48 hrs prior to cytotoxicity assays. Cells were then treated for an additional 24 hrs in the presence of various concentrations of the indicated compounds. Cell viability was assessed by CellTitre Glo assay (Promega Corp.) according to the manufacturer's recommendations.

GST-Bcl-2 = assay: TR-FRET binding assay, Bcl-2; settings: TR-FRET Ki values
Method in brief: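 Ki values come from Wang's competitive-binding equation applied to TR-FRET signal (excitation 340/35 nm; emission 520/525 nm F-Bak peptide, 495/510 nm Tb antibody). Protein, probe and antibody incubated with compound 3 h at room temperature; dilution series began at 50 μM as 2× stock in 10% DMSO.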

| Compound | Selectivity Ratio (Platelet EC50/FL5.12/Bcl-2 EC50) (FL5.12/Bcl-2 cells) | Binding selectivity ratio (Bcl-XL Ki/Bcl-2 Ki) (GST-Bcl-2) |
| --- | --- | --- |
| CN1CCC(CNc2ccc(S(=O)(=O)NC(=O)c3ccc(N4CCN(CC5=C(c6ccc(Cl)cc6)CC(C)(C)CC5)CC4)cc3Oc3cccc4[nH]ccc34)cc2[N+](=O)[O-])CC1 [Example 105, 4-(4-{[2-(4-chlorophenyl)-4,4-dimethylcyclohex-1-en-1-yl]methyl}piperazin-1-yl)-2-(1H-indol-4-yloxy)-N-[(4-{[(1-methylpiperidin-4-yl)methyl]amino}-3-nitrophenyl)sulfonyl]benzamide] | 2262 | 62.7 |
| CN1CCC(Nc2ccc(S(=O)(=O)NC(=O)c3ccc(N4CCN(CC5=C(c6ccc(Cl)cc6)CC(C)(C)CC5)CC4)cc3Oc3ccccc3)cc2[N+](=O)[O-])CC1 [Example 152, 4-(4-{[2-(4-chlorophenyl)-4,4-dimethylcyclohex-1-en-1-yl]methyl}piperazin-1-yl)-N-({4-[(1-methylpiperidin-4-yl)amino]-3-nitrophenyl}sulfonyl)-2-phenoxybenzamide] | 283 | 15.8 |
| COc1ccc(C2=C(CN3CCN(c4ccc(C(=O)NS(=O)(=O)c5ccc(NCCCN6CCCC6)c([N+](=O)[O-])c5)c(Oc5cccc6[nH]ccc56)c4)CC3)CCC(C)(C)C2)cc1 [Example 68, 2-(1H-indol-4-yloxy)-4-(4-{[2-(4-methoxyphenyl)-4,4-dimethylcyclohex-1-en-1-yl]methyl}piperazin-1-yl)-N-({3-nitro-4-[(3-pyrrolidin-1-ylpropyl)amino]phenyl}sulfonyl)benzamide] | >1144 | 11.4 |
| CN1CCC(Nc2ccc(S(=O)(=O)NC(=O)c3ccc(N4CCN(CC5=C(c6ccc(Cl)cc6)CC(C)(C)CC5)CC4)cc3Oc3ccc4[nH]ncc4c3)cc2[N+](=O)[O-])CC1 [Example 21, 4-(4-{[2-(4-chlorophenyl)-4,4-dimethylcyclohex-1-en-1-yl]methyl}piperazin-1-yl)-2-(1H-indazol-5-yloxy)-N-({4-[(1-methylpiperidin-4-yl)amino]-3-nitrophenyl}sulfonyl)benzamide] | >49 | 35.1 |
| CC1(C)CCC(CN2CCN(c3ccc(C(=O)NS(=O)(=O)c4ccc(NCCCN5CCCC5)c([N+](=O)[O-])c4)c(Oc4cccc5[nH]ccc45)c3)CC2)=C(c2ccc(F)cc2)C1 [Example 73, 4-(4-{[2-(4-fluorophenyl)-4,4-dimethylcyclohex-1-en-1-yl]methyl}piperazin-1-yl)-2-(1H-indol-4-yloxy)-N-({3-nitro-4-[(3-pyrrolidin-1-ylpropyl)amino]phenyl}sulfonyl)benzamide] | 166 | 9.9 |
| CN1CCC(Nc2ccc(S(=O)(=O)NC(=O)c3ccc(N4CCN(CC5=C(c6ccc(Cl)cc6)CCCC5)CC4)cc3Oc3ccc4[nH]ccc4c3)cc2[N+](=O)[O-])CC1 [Example 75, 4-(4-{[2-(4-chlorophenyl)cyclohex-1-en-1-yl]methyl}piperazin-1-yl)-2-(1H-indol-5-yloxy)-N-({4-[(1-methylpiperidin-4-yl)amino]-3-nitrophenyl}sulfonyl)benzamide] | 821 | 852.2 |
| CC1(C)CCC(CN2CCN(c3ccc(C(=O)NS(=O)(=O)c4ccc(NC5CCN(C6CCCC6)CC5)c([N+](=O)[O-])c4)c(Oc4ccc5[nH]ccc5c4)c3)CC2)=C(c2ccc(Cl)cc2)C1 [Example 26, 4-(4-{[2-(4-chlorophenyl)-4,4-dimethylcyclohex-1-en-1-yl]methyl}piperazin-1-yl)-N-({4-[(1-cyclopentylpiperidin-4-yl)amino]-3-nitrophenyl}sulfonyl)-2-(1H-indol-5-yloxy)benzamide] | >1429 | >4714.3 |
| CN(C)CCCNc1ccc(S(=O)(=O)NC(=O)c2ccc(N3CCN(CC4=C(c5ccc(Cl)cc5)CC(C)(C)CC4)CC3)cc2Oc2ccc3[nH]ccc3c2)cc1C#N [Example 172, 4-(4-{[2-(4-chlorophenyl)-4,4-dimethylcyclohex-1-en-1-yl]methyl}piperazin-1-yl)-N-[(3-cyano-4-{[3-(dimethylamino)propyl]amino}phenyl)sulfonyl]-2-(1H-indol-5-yloxy)benzamide] | >257 | 32.1 |
| CN(C)CCCNc1ccc(S(=O)(=O)NC(=O)c2ccc(N3CCN(Cc4ccccc4-c4ccc(Cl)cc4)CC3)cc2Oc2cccc3[nH]ccc23)cc1[N+](=O)[O-] [Example 46, 4-{4-[(4′-chloro-1,1′-biphenyl-2-yl)methyl]piperazin-1-yl}-N-[(4-{[3-(dimethylamino)propyl]amino}-3-nitrophenyl)sulfonyl]-2-(1H-indol-4-yloxy)benzamide] | 725 | 119.2 |
| CN(C)CCCNc1ccc(S(=O)(=O)NC(=O)c2ccc(N3CCN(CC4=C(c5ccc(Cl)cc5)CC(C)(C)CC4)CC3)cc2Oc2ccc3[nH]ccc3c2)cc1[N+](=O)[O-] [Example 53, 4-(4-{[2-(4-chlorophenyl)-4,4-dimethylcyclohex-1-en-1-yl]methyl}piperazin-1-yl)-N-[(4-{[3-(dimethylamino)propyl]amino}-3-nitrophenyl)sulfonyl]-2-(1H-indol-5-yloxy)benzamide] | 1697 | 59.8 |
| CC1(C)CCC(CN2CCN(c3ccc(C(=O)NS(=O)(=O)c4ccc(NCCCN5CCOCC5)c([N+](=O)[O-])c4)c(Oc4ccc5c(c4)CCCN5)c3)CC2)=C(c2ccc(Cl)cc2)C1 [Example 22, 4-(4-{[2-(4-chlorophenyl)-4,4-dimethylcyclohex-1-en-1-yl]methyl}piperazin-1-yl)-N-({4-[(3-morpholin-4-ylpropyl)amino]-3-nitrophenyl}sulfonyl)-2-(1,2,3,4-tetrahydroquinolin-6-yloxy)benzamide] | >61 | 20.2 |
| CN1CCC(Nc2ccc(S(=O)(=O)NC(=O)c3ccc(N4CCN(CC5=C(c6ccc(Cl)cc6)CC(C)(C)C5)CC4)cc3Oc3cccc4[nH]ccc34)cc2[N+](=O)[O-])CC1 [Example 144, 4-(4-{[2-(4-chlorophenyl)-4,4-dimethylcyclopent-1-en-1-yl]methyl}piperazin-1-yl)-2-(1H-indol-4-yloxy)-N-({4-[(1-methylpiperidin-4-yl)amino]-3-nitrophenyl}sulfonyl)benzamide] | 864 | >12.2 |
| CN(C)CCOc1ccc(-c2ccc(Cl)cc2)c(CN2CCN(c3ccc(C(=O)NS(=O)(=O)c4ccc(NCCCN5CCCC5)c([N+](=O)[O-])c4)c(Oc4ccc5[nH]ccc5c4)c3)CC2)c1 [Example 135, 4-[4-({4′-chloro-4-[2-(dimethylamino)ethoxy]-1,1′-biphenyl-2-yl}methyl)piperazin-1-yl]-2-(1H-indol-5-yloxy)-N-({3-nitro-4-[(3-pyrrolidin-1-ylpropyl)amino]phenyl}sulfonyl)benzamide] | 108 | 779.9 |
| CN(C)CCOc1cccc(-c2ccc(Cl)cc2)c1CN1CCN(c2ccc(C(=O)NS(=O)(=O)c3ccc(NCC4CCOCC4)c([N+](=O)[O-])c3)c(Oc3cccc4[nH]ccc34)c2)CC1 [Example 128, 4-[4-({4′-chloro-3-[2-(dimethylamino)ethoxy]-1,1′-biphenyl-2-yl}methyl)piperazin-1-yl]-2-(1H-indol-4-yloxy)-N-({3-nitro-4-[(tetrahydro-2H-pyran-4-ylmethyl)amino]phenyl}sulfonyl)benzamide] | >2000 | 7117.6 |
| CN(C)CCCOc1ccc(S(=O)(=O)NC(=O)c2ccc(N3CCN(CC4=C(c5ccc(Cl)cc5)CC(C)(C)CC4)CC3)cc2Oc2cccc3[nH]ccc23)cc1[N+](=O)[O-] [Example 106, 4-(4-{[2-(4-chlorophenyl)-4,4-dimethylcyclohex-1-en-1-yl]methyl}piperazin-1-yl)-N-({4-[3-(dimethylamino)propoxy]-3-nitrophenyl}sulfonyl)-2-(1H-indol-4-yloxy)benzamide] | 1657 |  |
| CC1(C)CCC(CN2CCN(c3ccc(C(=O)NS(=O)(=O)c4ccc(NC5CCN(C6CCOCC6)CC5)c([N+](=O)[O-])c4)c(Nc4cccnc4)c3)CC2)=C(c2ccc(Cl)cc2)C1 [EXAMPLE 397, 4-(4-{[2-(4-chlorophenyl)-4,4-dimethylcyclohex-1-en-1-yl]methyl}piperazin-1-yl)-N-({3-nitro-4-[(1-tetrahydro-2H-pyran-4-ylpiperidin-4-yl)amino]phenyl}sulfonyl)-2-(pyridin-3-ylamino)benzamide] |  | >28730.6285913286 |
